We go through eleven compounds from ChEMBL document CHEMBL1201862, “PubChem BioAssay data set” (2004).

What all share (assay): growth of human tumour cells (NCI), 48 h
The subject of assay [1] is UACC-62.
Assay [2] deals with SF-295.
For assay [3], the system named is OVCAR-8.
For assay [4], the system named is OVCAR-5.
For assay [5], the system named is SNB-75.
The subject of assay [6] is HOP-62.
The subject of assay [7] is SR.
Assay [8] has as its system SW-620.
Assay [9] deals with NCI-H226.
In assay [10] the test system is A549.
The subject of assay [11] is HCT-15.
The test system of assay [12] is Malme-3M.
Assay [13] concerns MDA-N.
For assay [14], the system named is 786-0.
Assay [15] deals with MDA-MB-231.
The test system of assay [16] is NCI-H522.
The test system of assay [17] is UO-31.
Assay [18] has as its system NCI-H460.
Assay [19] relates to SNB-19.
The subject of assay [20] is DMS-273.

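A five-concentration, 48-hour dose response in 96-well plates underlies each endpoint, interpolated linearly between surrounding concentrations. GI50 = concentration required for 50% inhibition of growth.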 Active and inactive are the calls of the source. Cut-off read from the data, not from the text of the source: active = GI50 up to about 1.1 µM and inactive = higher. Where only a bound is given, the exact number is not on record here.

`c1ccc2c[n+](CCCCCCCCCC[n+]3ccc4ccccc4c3)ccc2c1`: the GI50 in assay [1] was > 10 µM (inactive); in assay [2], 3.59 µM (inactive); in [3], > 10 µM (inactive); in [4], > 5.09 µM (inactive); in assay [5] it was 3.68 µM (inactive); in assay [6], > 10 µM (inactive). In addition, the GI50 in [7] was > 10 µM (inactive); in [8], > 10 µM (inactive); in assay [9], > 3.34 µM (inactive); in assay [10] it was 0.585 µM (active); in assay [11] it was more than 10 µM; in assay [12], > 10 µM (inactive). Besides, the GI50 in assay [13] was > 10 µM (inactive); in [14], > 10 µM (inactive); in assay [15], > 10 µM (inactive); in [16], 4.17 µM (inactive); in assay [17], > 10 µM (inactive); in assay [18], > 10 µM (inactive). Further, the GI50 in assay [19] is > 10 µM (inactive).
For `O=c1ccn(C/C=C/c2ccccc2)c(=S)n1C/C=C/c1ccccc1`, the GI50 in [1], in assay [2], in assay [3], in assay [4], in [5] and in assay [6] was > 100 µM (inactive) in each case. The GI50 in [7] is 8.24 µM (inactive); in [8], > 100 µM (inactive); in assay [9], > 100 µM (inactive); in assay [10] it was 17.7 µM (inactive); in assay [11], more than 100 µM; in assay [12], 89.1 µM (inactive). Also, the GI50 in assay [13] is 47.4 µM (inactive); in assay [14], > 100 µM (inactive); in [15] it was > 100 µM (inactive); in assay [16], 67.8 µM (inactive); in [17], 76 µM (inactive); in [18] it was 80 µM (inactive). Besides, in assay [19], the GI50 was > 100 µM (inactive).
On to `Nc1ccc(S(=O)(=O)Nc2nc3ccccc3nc2N2CCCCC2)cc1`, for which the GI50 in [1] was > 100 µM (inactive); in assay [2], 71.4 µM (inactive); in assay [3] it was 61.8 µM (inactive); in assay [4], > 100 µM (inactive); in [5] it was 24.3 µM (inactive); in assay [6], > 100 µM (inactive). In addition, the GI50 in assay [7] is 60.5 µM (inactive); in assay [8], 59 µM (inactive); in assay [9], > 100 µM (inactive); in [10], 48.1 µM (inactive); in assay [11], 78.7 µM; in assay [12] it was 71.9 µM (inactive). Moreover, the GI50 in [13] is > 100 µM (inactive); in assay [14], > 100 µM (inactive); in assay [15] it was > 100 µM (inactive); in assay [16], 31.1 µM (inactive); in assay [17] it was 11.3 µM (inactive); in assay [18], 79.3 µM (inactive). For the same compound, in assay [19], the GI50 was > 100 µM (inactive).
As for `CN(CCO)/N=N/c1n[nH]cc1C(N)=O`, the GI50 in assay [1], in assay [2], in [3], in assay [4], in assay [5] and in assay [8] was > 100 µM (inactive) each time. For the same compound, the GI50 in assay [9] is > 100 µM (inactive); in assay [10] it was > 100 µM (inactive); in [20], > 100 µM (inactive); in assay [11], more than 100 µM; in assay [12], > 100 µM (inactive); in assay [16] it was > 100 µM (inactive). Also, the GI50 in [17], in assay [18] and in assay [19] was > 100 µM (inactive) throughout.
Take `C[C@]12CC[C@H]3[C@@H](CCC4=CC(=O)CC[C@@H]43)[C@@H]1CC[C@@H]2OC1(O)C(=O)c2ccccc2C1=O`: the GI50 in assay [1] was 11.7 µM (inactive); in assay [2] it was > 100 µM (inactive); in assay [3], 45.2 µM (inactive); in assay [4] it was 27.6 µM (inactive); in [5], 56.9 µM (inactive); in assay [6] it was 36.6 µM (inactive). Moreover, the GI50 in assay [7] was 35.6 µM (inactive); in assay [8], 40.6 µM (inactive); in assay [9] it was > 100 µM (inactive); in assay [10] it was > 100 µM (inactive); in [11] it was 37.8 µM; in assay [12] it was 34 µM (inactive). Further, the GI50 was 17.6 µM (inactive) in assay [13]; 24.9 µM (inactive) in assay [14]; 87.3 µM (inactive) in assay [15]; 17.3 µM (inactive) in [16]; 26.2 µM (inactive) in assay [17]; 67 µM (inactive) in assay [18]. Moreover, the GI50 in [19] is > 100 µM (inactive).
In the case of `C=C(CO[Si](C)(C)C(C)(C)C)C(C)=O`, the GI50 in assay [1] was 15.7 µM (inactive); in assay [2], > 100 µM (inactive); in [3], 18.8 µM (inactive); in [4], 31 µM (inactive); in assay [5], 20 µM (inactive); in assay [6] it was > 100 µM (inactive). Besides, the GI50 in assay [7] was 3.55 µM (inactive); in [8], 8.15 µM (inactive); in assay [9], > 69.3 µM (inactive); in [10] it was > 100 µM (inactive); in assay [11], 13.9 µM; in assay [12] it was 16.6 µM (inactive). The GI50 in [13] is 15.3 µM (inactive); in assay [14], 17.2 µM (inactive); in assay [15] it was 20.3 µM (inactive); in [16], 3.78 µM (inactive); in assay [17] it was > 46.9 µM (inactive); in assay [18], > 77.4 µM (inactive). In addition, the GI50 in assay [19] is > 86.1 µM (inactive).
As to `C=C(CO)CC(O)c1ccccc1` (stereo not given), the GI50 in [1], in [2], in assay [3], in assay [4], in assay [5] and in [6] was > 100 µM (inactive) each time. For the same compound, the GI50 is > 100 µM (inactive) in [8]; > 100 µM (inactive) in assay [9]; > 100 µM (inactive) in assay [10]; > 100 µM (inactive) in assay [20]; more than 100 µM in assay [11]; > 100 µM (inactive) in assay [14]. Moreover, the GI50 in assay [16], in assay [17], in assay [18] and in [19] was > 100 µM (inactive) each time.
For the compound `Cc1cc(C)c2c(=N)c3ccccc3n(CCCCCCn3c4ccccc4c(=N)c4c(C)cc(C)nc43)c2n1`, the GI50 in [1] was 1.77 µM (inactive); in assay [2] it was 1.36 µM (inactive); in assay [3] it was 1.68 µM (inactive); in assay [4] it was 1.84 µM (inactive); in assay [5], 0.628 µM (active); in [6] it was 0.598 µM (active). The GI50 was 0.197 µM (active) in assay [7]; 0.209 µM (active) in assay [8]; 1.66 µM (inactive) in assay [9]; 1.63 µM (inactive) in assay [10]; 0.181 µM in assay [11]; 1.63 µM (inactive) in assay [12]. The GI50 in assay [13] was 1.78 µM (inactive); in assay [14], 0.224 µM (active); in [15], 0.447 µM (active); in assay [16], 1.39 µM (inactive); in [17] it was 1.56 µM (inactive); in assay [18], 0.859 µM (active). Also, the GI50 in assay [19] was 0.767 µM (active).
On to `O=C1C(c2ccccc2)=C(c2ccccc2)C(c2ccc(CCCCCCc3ccc(C4=C(c5ccccc5)C(=O)C(c5ccccc5)=C4c4ccccc4)cc3)cc2)=C1c1ccccc1`, for which the GI50 in [1], in assay [2], in assay [3], in assay [4], in assay [6] and in assay [8] was > 100 µM (inactive) each time. Besides, the GI50 was > 100 µM (inactive) in assay [10]; > 100 µM (inactive) in assay [20]; more than 100 µM in assay [11]; > 100 µM (inactive) in assay [12]; > 100 µM (inactive) in assay [14]; > 100 µM (inactive) in assay [16]. Further, the GI50 in assay [17] was > 100 µM (inactive); in [18], > 100 µM (inactive); in assay [19], 65 µM (inactive).
`C=C(Cl)/C(=C/Cl)CCC(Br)C(C)(C)Cl.C=C(Cl)/C(=C\Cl)CCC(Br)C(C)(C)Cl` (stereo not given): the GI50 in assay [1], in [2], in assay [3], in assay [4], in assay [5] and in [6] was > 10 µM (inactive) each time. The GI50 in [7] is 5.45 µM (inactive); in assay [8] it was > 10 µM (inactive); in assay [9], > 10 µM (inactive); in [10], > 10 µM (inactive); in assay [11], more than 10 µM; in assay [12] it was > 10 µM (inactive). Also, the GI50 is > 10 µM (inactive) in assay [13]; > 10 µM (inactive) in assay [14]; > 10 µM (inactive) in assay [15]; 9.77 µM (inactive) in assay [16]; > 10 µM (inactive) in [17]; > 10 µM (inactive) in [18]. Moreover, in assay [19], the GI50 was > 10 µM (inactive).
For `CN1C(=O)C2C(C1=O)C1(O)c3ccccc3C2(N)c2ccccc21` (stereo not given), the GI50 in assay [1], in assay [2], in assay [3], in [4], in [5] and in assay [6] was > 100 µM (inactive) each time. Further, the GI50 is > 100 µM (inactive) in assay [8]; > 100 µM (inactive) in assay [9]; > 100 µM (inactive) in assay [10]; > 100 µM (inactive) in [20]; more than 100 µM in assay [11]; > 100 µM (inactive) in assay [12]. Moreover, the GI50 in assay [14], in assay [17], in assay [18] and in assay [19] was > 100 µM (inactive) each time.
